Results published in patent publication US12275731B2, “Azaindole inhibitors of wild-type and mutant forms of LRRK2” (DANA-FARBER CANCER INSTITUTE, INC., priority 2018, dated 2025).

Key:
Test in all cases: KinomeScan profiling
Type in all cases: binding
RIPK4 = target: T1, RIPK4 (Homo sapiens, UniProt P57078); conditions: RIPK4, 1 μM; read-out: % control
T1 sequence (P57078 1-832): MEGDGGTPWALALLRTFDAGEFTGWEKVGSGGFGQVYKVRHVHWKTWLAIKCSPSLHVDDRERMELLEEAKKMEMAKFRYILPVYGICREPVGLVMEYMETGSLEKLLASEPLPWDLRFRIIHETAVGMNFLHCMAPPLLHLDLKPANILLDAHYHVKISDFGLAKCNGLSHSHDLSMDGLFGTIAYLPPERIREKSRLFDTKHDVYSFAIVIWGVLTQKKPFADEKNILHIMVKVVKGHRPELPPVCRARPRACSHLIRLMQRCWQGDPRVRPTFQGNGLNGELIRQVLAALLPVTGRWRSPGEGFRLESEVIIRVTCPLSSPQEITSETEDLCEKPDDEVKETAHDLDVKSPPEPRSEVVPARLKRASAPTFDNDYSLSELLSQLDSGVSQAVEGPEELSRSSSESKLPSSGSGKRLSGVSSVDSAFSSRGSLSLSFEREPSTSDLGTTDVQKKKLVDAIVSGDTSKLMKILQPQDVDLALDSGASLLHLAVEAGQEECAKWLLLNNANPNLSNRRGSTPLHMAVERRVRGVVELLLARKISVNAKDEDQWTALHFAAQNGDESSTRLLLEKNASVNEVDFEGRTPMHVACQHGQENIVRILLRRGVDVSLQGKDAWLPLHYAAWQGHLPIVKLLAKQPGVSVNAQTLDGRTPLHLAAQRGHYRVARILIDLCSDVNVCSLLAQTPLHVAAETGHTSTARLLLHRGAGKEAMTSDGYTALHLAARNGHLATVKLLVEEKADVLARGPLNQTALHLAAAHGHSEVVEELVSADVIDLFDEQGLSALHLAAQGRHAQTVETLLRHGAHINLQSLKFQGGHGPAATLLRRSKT
Description: (§1) The kinase selectivity of inventive compounds 77, 96 and 101 was evaluated by KinomeScan®. KinomeScan® analysis was performed against a near comprehensive panel of 468 kinases. The control percentage (% control) for inventive compounds at 1 μM in DMSO was determined by Equation 1: % control=(inventive compound−positive control)/(negative control−positive control)×100%, Equation 1
(§2) wherein the positive control is a compound with a % control value of 0% relative light units (RLU), and the negative control (i.e., DMSO) has % control value of 100% RLU. The enzyme selectivity in the present invention is defined as follows: inventive compounds are considered active for an enzyme when the observed % control is less than 35% (<35%).

NIM1 = NIM1 (Homo sapiens, UniProt Q8IY84); conditions: NIM1, 1 μM; read-out: % control
Chain of NIM1 (Q8IY84 whole entry): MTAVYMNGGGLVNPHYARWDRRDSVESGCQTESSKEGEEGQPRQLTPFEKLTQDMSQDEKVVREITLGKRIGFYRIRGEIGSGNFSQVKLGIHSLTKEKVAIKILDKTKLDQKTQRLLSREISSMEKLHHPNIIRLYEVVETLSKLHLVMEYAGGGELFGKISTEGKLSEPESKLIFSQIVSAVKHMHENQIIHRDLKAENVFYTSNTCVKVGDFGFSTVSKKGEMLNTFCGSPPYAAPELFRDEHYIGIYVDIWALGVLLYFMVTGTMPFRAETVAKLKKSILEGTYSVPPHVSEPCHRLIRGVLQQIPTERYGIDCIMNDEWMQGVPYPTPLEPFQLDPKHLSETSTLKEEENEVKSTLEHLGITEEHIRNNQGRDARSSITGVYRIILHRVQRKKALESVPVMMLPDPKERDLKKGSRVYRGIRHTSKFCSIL
Description: as §1, §2

CDK7 = CDK7 (Homo sapiens, UniProt P50613); conditions: CDK7, 1 μM; read-out: % control
Chain of CDK7 (P50613 whole entry): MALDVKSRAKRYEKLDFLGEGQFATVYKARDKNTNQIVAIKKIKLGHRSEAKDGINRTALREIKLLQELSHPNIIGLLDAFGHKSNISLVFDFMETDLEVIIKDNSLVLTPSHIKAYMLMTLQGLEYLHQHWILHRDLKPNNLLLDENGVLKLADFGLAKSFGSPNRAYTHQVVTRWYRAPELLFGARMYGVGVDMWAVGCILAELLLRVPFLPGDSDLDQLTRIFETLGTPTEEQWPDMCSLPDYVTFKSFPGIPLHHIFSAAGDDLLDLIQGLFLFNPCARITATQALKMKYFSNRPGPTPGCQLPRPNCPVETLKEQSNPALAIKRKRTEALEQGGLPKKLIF
Description: as §1, §2

ERBB4 = ERBB4 (Homo sapiens, UniProt Q15303); conditions: ERBB4, 1 μM; read-out: % control
Description: as §1, §2

NDR2 = NDR2 (Homo sapiens, UniProt Q9Y2H1); conditions: NDR2, 1 μM; read-out: % control
Chain of NDR2 (Q9Y2H1 whole entry): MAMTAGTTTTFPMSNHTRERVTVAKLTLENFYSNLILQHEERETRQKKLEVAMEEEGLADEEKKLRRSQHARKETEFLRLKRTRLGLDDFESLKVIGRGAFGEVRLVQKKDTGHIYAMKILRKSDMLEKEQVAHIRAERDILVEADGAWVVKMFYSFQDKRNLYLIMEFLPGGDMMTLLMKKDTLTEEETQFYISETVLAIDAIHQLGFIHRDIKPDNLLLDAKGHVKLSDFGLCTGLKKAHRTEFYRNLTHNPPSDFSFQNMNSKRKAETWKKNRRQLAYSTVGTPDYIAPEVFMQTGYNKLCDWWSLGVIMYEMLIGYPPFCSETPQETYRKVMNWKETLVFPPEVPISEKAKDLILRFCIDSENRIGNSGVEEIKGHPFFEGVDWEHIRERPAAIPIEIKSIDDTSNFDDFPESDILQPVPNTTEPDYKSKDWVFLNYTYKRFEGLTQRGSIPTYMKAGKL
Description: as §1, §2

ERK3 = ERK3 (Homo sapiens, UniProt Q16659); conditions: ERK3, 1 μM; read-out: % control
Chain of ERK3 (Q16659 whole entry): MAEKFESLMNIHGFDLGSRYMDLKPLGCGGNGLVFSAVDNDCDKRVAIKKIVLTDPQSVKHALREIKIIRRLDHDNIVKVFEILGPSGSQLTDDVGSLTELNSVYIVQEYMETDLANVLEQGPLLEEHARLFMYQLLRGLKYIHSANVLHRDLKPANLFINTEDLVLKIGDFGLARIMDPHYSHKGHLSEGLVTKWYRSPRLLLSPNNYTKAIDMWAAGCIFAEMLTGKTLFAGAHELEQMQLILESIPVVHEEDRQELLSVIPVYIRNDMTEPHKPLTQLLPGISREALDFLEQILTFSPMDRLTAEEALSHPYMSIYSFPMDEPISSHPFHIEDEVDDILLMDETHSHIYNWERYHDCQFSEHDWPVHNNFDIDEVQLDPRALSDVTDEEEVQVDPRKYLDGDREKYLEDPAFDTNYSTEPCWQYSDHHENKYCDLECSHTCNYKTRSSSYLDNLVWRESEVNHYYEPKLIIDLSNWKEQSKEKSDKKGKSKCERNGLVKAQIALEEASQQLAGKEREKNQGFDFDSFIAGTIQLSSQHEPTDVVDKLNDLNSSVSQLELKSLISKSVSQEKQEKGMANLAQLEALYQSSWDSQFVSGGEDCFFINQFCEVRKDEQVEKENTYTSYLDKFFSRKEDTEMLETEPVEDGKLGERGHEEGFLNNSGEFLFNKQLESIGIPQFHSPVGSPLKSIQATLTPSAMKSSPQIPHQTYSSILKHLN
Description: as §1, §2

DRAK2 = target: T2, DRAK2 (Homo sapiens, UniProt O94768); conditions: DRAK2, 1 μM; read-out: % control
T2 sequence (O94768 1-372): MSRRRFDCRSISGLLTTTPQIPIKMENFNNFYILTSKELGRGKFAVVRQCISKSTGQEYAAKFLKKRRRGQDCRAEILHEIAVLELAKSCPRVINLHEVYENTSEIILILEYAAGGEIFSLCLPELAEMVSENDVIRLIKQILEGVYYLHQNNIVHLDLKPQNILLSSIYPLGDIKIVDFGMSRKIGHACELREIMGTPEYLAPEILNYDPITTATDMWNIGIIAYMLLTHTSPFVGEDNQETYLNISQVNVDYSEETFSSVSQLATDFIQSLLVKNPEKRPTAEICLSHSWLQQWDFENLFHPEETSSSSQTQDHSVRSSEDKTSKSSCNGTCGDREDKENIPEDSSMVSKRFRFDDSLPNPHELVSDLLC
Description: as §1, §2

CSK = CSK (Homo sapiens, UniProt P41240); conditions: read-out: % control
Chain of CSK (P41240 whole entry): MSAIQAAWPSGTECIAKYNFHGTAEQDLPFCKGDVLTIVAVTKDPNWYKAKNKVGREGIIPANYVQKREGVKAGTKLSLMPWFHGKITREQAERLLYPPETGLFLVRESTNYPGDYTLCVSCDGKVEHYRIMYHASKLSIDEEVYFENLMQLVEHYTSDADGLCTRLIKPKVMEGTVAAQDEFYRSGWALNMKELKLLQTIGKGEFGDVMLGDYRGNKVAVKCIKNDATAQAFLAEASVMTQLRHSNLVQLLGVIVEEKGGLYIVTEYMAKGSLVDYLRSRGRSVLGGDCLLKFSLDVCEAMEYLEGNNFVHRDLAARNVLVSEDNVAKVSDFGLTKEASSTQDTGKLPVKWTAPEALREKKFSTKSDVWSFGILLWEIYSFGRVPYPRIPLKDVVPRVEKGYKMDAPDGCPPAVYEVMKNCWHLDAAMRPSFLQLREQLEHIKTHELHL
Description: as §1, §2

ERK1 = ERK1 (Homo sapiens, UniProt P27361); conditions: ERK1, 1 μM; read-out: % control
Chain of ERK1 (P27361 whole entry): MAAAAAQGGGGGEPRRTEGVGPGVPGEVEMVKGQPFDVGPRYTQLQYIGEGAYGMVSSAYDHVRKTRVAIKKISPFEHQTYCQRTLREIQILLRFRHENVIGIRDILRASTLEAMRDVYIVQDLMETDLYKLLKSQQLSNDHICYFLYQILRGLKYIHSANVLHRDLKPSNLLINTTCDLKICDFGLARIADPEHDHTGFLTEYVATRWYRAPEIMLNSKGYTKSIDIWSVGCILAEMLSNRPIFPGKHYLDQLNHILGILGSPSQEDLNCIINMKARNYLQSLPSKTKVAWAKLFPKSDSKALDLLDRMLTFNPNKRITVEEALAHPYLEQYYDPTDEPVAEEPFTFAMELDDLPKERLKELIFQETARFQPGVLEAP
Description: as §1, §2

MET(Y1235D) = MET(Y1235D) (Homo sapiens, UniProt P08581, Y1235D); conditions: read-out: % control
Chain of MET(Y1235D) (P08581 25-1390 Y1235D): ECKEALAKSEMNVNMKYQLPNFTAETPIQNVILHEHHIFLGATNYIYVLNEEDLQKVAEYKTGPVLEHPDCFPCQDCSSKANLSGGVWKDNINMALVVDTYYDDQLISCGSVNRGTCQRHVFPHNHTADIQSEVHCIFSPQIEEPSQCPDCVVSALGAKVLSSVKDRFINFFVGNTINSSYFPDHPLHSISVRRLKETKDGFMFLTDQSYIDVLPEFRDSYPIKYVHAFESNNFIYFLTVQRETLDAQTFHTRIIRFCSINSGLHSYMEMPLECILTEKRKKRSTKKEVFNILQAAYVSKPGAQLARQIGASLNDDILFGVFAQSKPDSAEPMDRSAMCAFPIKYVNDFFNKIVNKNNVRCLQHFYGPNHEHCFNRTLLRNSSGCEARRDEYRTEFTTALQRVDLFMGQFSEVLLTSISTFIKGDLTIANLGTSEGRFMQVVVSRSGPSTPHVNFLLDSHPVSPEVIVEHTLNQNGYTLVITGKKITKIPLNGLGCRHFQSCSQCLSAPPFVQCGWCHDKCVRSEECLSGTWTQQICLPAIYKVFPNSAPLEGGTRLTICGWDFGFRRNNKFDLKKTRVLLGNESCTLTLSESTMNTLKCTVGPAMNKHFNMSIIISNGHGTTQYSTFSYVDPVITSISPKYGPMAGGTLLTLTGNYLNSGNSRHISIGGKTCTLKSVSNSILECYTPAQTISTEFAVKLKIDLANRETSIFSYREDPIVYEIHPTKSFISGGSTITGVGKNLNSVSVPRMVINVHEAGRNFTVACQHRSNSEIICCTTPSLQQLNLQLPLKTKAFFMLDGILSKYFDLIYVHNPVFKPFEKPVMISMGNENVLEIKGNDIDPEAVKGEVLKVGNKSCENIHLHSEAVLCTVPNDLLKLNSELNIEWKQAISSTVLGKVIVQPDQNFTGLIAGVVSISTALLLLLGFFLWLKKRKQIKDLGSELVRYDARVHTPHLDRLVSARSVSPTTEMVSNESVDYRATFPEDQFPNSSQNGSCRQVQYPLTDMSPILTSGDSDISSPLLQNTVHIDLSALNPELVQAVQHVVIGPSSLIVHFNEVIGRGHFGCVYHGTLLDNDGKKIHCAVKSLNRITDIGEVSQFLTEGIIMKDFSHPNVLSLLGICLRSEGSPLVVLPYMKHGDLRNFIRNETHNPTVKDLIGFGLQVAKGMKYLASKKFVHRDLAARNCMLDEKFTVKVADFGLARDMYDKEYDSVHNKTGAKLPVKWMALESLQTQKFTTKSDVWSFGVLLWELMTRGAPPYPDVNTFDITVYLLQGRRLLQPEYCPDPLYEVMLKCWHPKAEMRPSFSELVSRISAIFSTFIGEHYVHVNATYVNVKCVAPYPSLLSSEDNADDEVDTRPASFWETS
Description: as §1, §2

PRKG1 = target: T3, PRKG1 (Homo sapiens, UniProt Q13976); conditions: PRKG1, 1 μM; read-out: % control
T3 sequence (Q13976 1-671): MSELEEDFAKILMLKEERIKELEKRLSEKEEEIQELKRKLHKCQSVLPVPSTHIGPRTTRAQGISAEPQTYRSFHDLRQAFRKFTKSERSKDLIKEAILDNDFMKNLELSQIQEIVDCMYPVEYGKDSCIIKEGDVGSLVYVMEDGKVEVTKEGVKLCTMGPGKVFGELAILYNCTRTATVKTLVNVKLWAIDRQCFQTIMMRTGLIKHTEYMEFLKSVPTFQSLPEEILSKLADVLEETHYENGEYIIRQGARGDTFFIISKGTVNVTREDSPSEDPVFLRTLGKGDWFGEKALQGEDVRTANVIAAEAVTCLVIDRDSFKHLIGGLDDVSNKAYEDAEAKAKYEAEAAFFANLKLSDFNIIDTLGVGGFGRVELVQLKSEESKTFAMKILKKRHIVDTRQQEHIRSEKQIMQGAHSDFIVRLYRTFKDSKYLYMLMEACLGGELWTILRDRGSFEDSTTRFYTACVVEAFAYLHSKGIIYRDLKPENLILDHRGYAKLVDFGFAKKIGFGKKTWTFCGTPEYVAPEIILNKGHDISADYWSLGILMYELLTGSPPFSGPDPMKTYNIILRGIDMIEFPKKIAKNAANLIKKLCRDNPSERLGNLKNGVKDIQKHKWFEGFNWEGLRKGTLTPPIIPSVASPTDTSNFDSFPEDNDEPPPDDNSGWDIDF
Description: as §1, §2

PKNB(M. tuberculosis) = PKNB(M. tuberculosis) (Mycobacterium tuberculosis, UniProt P9WI81); conditions: read-out: % control
Chain of PKNB(M. tuberculosis) (P9WI81 whole entry): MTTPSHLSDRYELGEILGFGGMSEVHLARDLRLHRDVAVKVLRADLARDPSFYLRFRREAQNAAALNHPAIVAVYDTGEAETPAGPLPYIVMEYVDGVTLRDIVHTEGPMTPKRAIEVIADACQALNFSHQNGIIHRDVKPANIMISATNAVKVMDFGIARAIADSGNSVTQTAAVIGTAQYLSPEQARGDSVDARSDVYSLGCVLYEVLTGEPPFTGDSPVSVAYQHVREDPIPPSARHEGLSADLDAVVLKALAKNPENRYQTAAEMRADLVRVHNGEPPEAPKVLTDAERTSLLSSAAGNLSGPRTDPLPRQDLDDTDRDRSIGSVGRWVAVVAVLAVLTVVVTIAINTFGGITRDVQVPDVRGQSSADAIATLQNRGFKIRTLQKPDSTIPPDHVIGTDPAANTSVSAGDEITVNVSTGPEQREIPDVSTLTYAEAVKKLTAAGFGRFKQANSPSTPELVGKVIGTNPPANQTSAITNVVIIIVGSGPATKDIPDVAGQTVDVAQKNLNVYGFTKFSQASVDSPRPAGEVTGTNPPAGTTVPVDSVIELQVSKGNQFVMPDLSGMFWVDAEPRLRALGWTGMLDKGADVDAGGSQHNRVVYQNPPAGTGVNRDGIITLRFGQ

| SMILES | remaining binding at 1 µM (RIPK4) [%] | remaining binding at 1 µM (NIM1) [%] | remaining binding at 1 µM (CDK7) [%] | remaining binding at 1 µM (ERBB4) [%] | remaining binding at 1 µM (NDR2) [%] | remaining binding at 1 µM (ERK3) [%] | remaining binding at 1 µM (DRAK2) [%] | remaining binding at 1 µM (CSK) [%] | remaining binding at 1 µM (ERK1) [%] | remaining binding at 1 µM (MET(Y1235D)) [%] | remaining binding at 1 µM (PRKG1) [%] | remaining binding at 1 µM (PKNB(M. tuberculosis)) [%] |
| --- | --- | --- | --- | --- | --- | --- | --- | --- | --- | --- | --- | --- |
| O=C(c1ccc(-c2cnc3[nH]cc(Cl)c3c2NC2CCCC2)cc1)N1CCC(N2CCOCC2)CC1 [Compound 101, (4-(3-chloro-4-(cyclopentylamino)-1H-pyrrolo[2,3-b]pyridin-5-yl)phenyl)(4-morpholinopiperidin-1-yl)methanone] | 100 | 99 | 93 | 97 | 63 | 100 | 92 | 100 | 98 | 30 | 89 | 89 |
| CNc1c(-c2cnn([C@H]3CCN(C(C)=O)C[C@@H]3F)c2)cnc2[nH]cc(Cl)c12 [Compound 77, 1-((3S,4S)-4-(4-(3-chloro-4-(methylamino)-1H-pyrrolo[2,3-b]pyridin-5-yl)-1H-pyrazol-1-yl)-3-fluoropiperidin-1-yl)ethan-1-one] | 1.3 | 69 | 94 | 100 | 21 | 87 | 47 | 22 | 100 | 56 | 100 | 30 |
| CNc1c(-c2ccc(C(=O)N3CCC(N4CCOCC4)CC3)cc2)cnc2[nH]cc(Cl)c12 [Compound 96, (4-(3-chloro-4-(methylamino)-1H-pyrrolo[2,3-b]pyridin-5-yl)phenyl)(4-morpholinopiperidin-1-yl)methanone] | 7.8 | 50 | 90 | 100 | 19 | 85 | 19 | 44 | 100 | 83 | 100 | 61 |
